PMC12375970, “Probing the extent of importin‐α targeting of the TAF8 NLS by eliminating its cationic net‐charge” (Protein Science : A Publication of the Protein Society, 2025)
Ends that are not written are not given here.

Legend:
[1] = target: T1, mImpα2 (Mus musculus, UniProt P52293); experiment: Microscale thermophoresis (MST); type: binding; conditions: for Hill Coeff.: Hill equation fit, mean ± SD of three experiments; for Kd: RED-NHS-labelled mImpα2 60 nM, NLS 250 μM–7.6 nM, 20 mM Tris–HCl, 127 mM NaCl, pH 8.0, 0.5% Tween-20, mean ± SD of three experiments, read-out: KD, 1-binding site fitted model
T1 construct: MImpα2, residues 70–529, was co‐crystallized with each NLS analog; His-tag; made in house; host or cells: Escherichia coli BL21 (DE3)
Description: Microscale thermophoresis (MST) experiments were conducted using the Monolith NT.115 (Nanotemper, Germany). The RED‐NHS 2nd generation Nanotemper labeling kit (MO‐L011) was used to label mImpα2 in 20 mM Tris–HCl and 127 mM NaCl at pH 8.0. Ten microliter of RED‐NHS‐reacted mImpα2 at 60 nM was titrated against a serial 1:1 dilution (250 μM–7.6 nM) of 10 μL of NLS containing 0.5% Tween‐20, and the mixture was pipetted into 16 MST capillaries contained in a single cartridge. The samples were processed using default settings and followed the manufacturer's protocol. The binding model fits are detailed in Data S1.
A two-binding site and Hill fitting model were also performed by using the following equation in GraphPad. The experiments were repeated three times and the calculated affinity values were reported as the mean equilibrium KD ± standard deviation.
One binding site equation [11]:
Y= Et+Lt+KD- (Et+Lt+KD)2- 4EtLt2Et
Where Lt is the total ligand concentration; protein concentration is Et; KD is the dissociation constant or binding affinity.
Two binding site equation [11]: […]
Where KD1and KD2are the dissociation constants for binding site 1 and 2.
Where L is known, and cooperativity is explicitly reported as the Hill coefficient (n) […].

[2] = target: T1, mImpα2; experiment: Apparent NLS–mImpα2 complex stability monitored by CD (thermal denaturation); type: binding; conditions: for T°: CD thermal denaturation of mImpα2 in the presence of the ligand (mImpα2 alone 36.35); for ∆H°u (T°): CD thermal denaturation of mImpα2 with ligand, Van't Hoff method; for ΔG°u (25°C) / ΔG°u (37°C) / ΔΔG°u (25°C) / ΔΔG°u (37°C): CD; for ΔG°u (25°C) / ΔG°u (37°C): mImpα2 with ligand; for ΔΔG°u (25°C) / ΔΔG°u (37°C): relative to mImpα2 alone
Description: In the presence of TAF8 NLS, mImpα2 was stabilized, evidenced by the increase in temperature denaturation, shift in stability curves, and the reduction of the unfolded state (Figures S5a–c and 5a). The analogs also stabilized mImpα2, albeit to a lesser extent than TAF8 NLS.
CD measurements were conducted as previously described, including the determination of free energy using the Van't Hoff method (Jean‐Francois et al. [2003]). Fitting details are in Data S1.

[3] = tested on: Hela cells; experiment: Fluorescence microscopy of nuclear localization of EGFP-NLS constructs, Hela; type: cell-based; conditions: Hela cells transfected with pCIneoEGFP constructs (EGFP fusions), 24 h post-transfection
Description: The plasmids, cloning, and cell culture transfection methods are described in Data S1. Cells were fixed with 3% paraformaldehyde (Electron Microscopy Sciences, Cat#15710) for 15 min at room temperature; then rinsed thoroughly with PBS. Nuclear staining was performed using 1 μg/mL DAPI (Sigma, Cat#D9542) in PBS. Following staining, cells were rinsed again with PBS and mounted with glass coverslips using Vectashield Antifade Mounting Medium (Vector Laboratories, Cat#H‐1000).
Fluorescence imaging was performed using a Zeiss AxioImager.M2 microscope (RRID:SCR_024706) equipped with a 40× EC Plan‐NeoFluar (1.3 NA; oil) objective, X‐Cite XYLIS LED illumination system, and a Zeiss AxioCam mRm CCD monochrome camera. Image acquisition and initial processing were performed using ZEN Blue software (RRID:SCR_013672), and additional analyses were performed using Fiji (ImageJ; RRID:SCR_002285). For each experimental condition, 15 randomly selected fields of view were imaged. Line overlay fluorescence intensity was quantified using the line profile tool in Fiji. A straight line across the entire cell length was drawn and centered on the nucleus. The “Plot Profile” function was used to extract pixel intensity values along the line. Three cells were analyzed per condition, and the data were presented as mean fluorescence intensity values. […]

[4] = Solubility of the synthesized peptides in water; conditions: synthesized peptide
[5] = target: importin‐α; conditions: 1:1 stoichiometry; ref Trowitzsch et al. [2015]; read-out: Dissociation constant (KD) by ITC; cited from earlier work
Source text: The general transcription factor TFIID is essential for RNA polymerase II transcription initiation in eukaryotic cells. This megadalton protein complex, composed of several TATA‐binding‐associated factors (TAFs), is assembled into a functional transcription factor in the nucleus (Thomas and Chiang [2006]). […] The Berger group recently elucidated how an essential TFIID subcomplex consisting of TAF2, TAF8, and TAF10 is assembled in the cytoplasm (Trowitzsch et al. [2015]). […] Trowitzsch et al. originally reported K D value for TAF8 NLS of ~10 μM with 1:1 stoichiometry (Trowitzsch et al. [2015]). […] In c ...

| Substance | Hill Coeff. [1] | Kd [1] [µM] | T° [2] [°C] | ∆H°u (T°) [2] [kcal/mol] | ΔG°u (25°C) [2] [kcal/mol] | ΔG°u (37°C) [2] [kcal/mol] | ΔΔG°u (25°C) [2] [kcal/mol] | ΔΔG°u (37°C) [2] [kcal/mol] | Nuclear localization (fluorescence) [3] | Soluble in H20 [4] | Kd [5] [µM] |
| --- | --- | --- | --- | --- | --- | --- | --- | --- | --- | --- | --- |
| PVKKEKIDE [A4] | 0.64 ± 0.24 | 16.7 ± 1.96 | 37.15 | 87.9 | 3.2 | 0.1 | 0.7 | 0.3 | outperformed A3 in promoting nuclear localization | – | – |
| EVKKPKIDE [A1] | – | 13.8 ± 2.31 | – | – | – | – | – | – | – | – | – |
| PVKKPKIRR [TAF8] | 3.1 ± 0.39 | 1.21 ± 0.313 | 47.45 | 170 | 11.1 | 5.4 | 8.6 | 5.6 | – | Yes | ~10 |
| H-PEKKPKIDE-OH [A3] | 0.71 ± 0.30 | 10.6 ± 2.14 | 40.55 | 94.9 | 4.3 | 1.1 | 1.8 | 1.3 | – | – | – |
| PVKKEKIEE [A2] | – | 15.9 ± 3.1 | – | – | – | – | – | – | – | Yes | – |
